Peptide text beside a SMILES is read from it.
Target: Neuronal acetylcholine receptor; alpha9/alpha10 (Homo sapiens, UniProt Q9GZZ6+Q9UGM1)
Assay: Inhibition of human alpha9/alpha10 nACHR (1:1) expressed in Xenopus laevis oocyte assessed as inhibition of ACh induced channel current measured for 2 to 5 days at -80 mV holding potential by two electrode voltage clamp method

Chain of Neuronal acetylcholine receptor; alpha9/alpha10 (Q9UGM1 whole entry): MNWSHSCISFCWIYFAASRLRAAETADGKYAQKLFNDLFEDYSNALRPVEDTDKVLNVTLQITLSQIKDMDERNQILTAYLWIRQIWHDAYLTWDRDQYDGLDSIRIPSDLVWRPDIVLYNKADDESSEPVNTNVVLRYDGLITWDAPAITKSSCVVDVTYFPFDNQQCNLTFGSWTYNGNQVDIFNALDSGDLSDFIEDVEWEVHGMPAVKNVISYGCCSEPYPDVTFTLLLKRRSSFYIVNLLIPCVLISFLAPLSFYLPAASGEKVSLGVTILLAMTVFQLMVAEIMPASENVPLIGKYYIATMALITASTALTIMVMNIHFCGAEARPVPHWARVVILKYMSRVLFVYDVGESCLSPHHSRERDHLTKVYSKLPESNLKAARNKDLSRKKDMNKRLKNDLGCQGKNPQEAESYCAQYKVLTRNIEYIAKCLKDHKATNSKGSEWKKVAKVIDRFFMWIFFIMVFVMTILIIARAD
Chain of Neuronal acetylcholine receptor; alpha9/alpha10 (Q9GZZ6 whole entry): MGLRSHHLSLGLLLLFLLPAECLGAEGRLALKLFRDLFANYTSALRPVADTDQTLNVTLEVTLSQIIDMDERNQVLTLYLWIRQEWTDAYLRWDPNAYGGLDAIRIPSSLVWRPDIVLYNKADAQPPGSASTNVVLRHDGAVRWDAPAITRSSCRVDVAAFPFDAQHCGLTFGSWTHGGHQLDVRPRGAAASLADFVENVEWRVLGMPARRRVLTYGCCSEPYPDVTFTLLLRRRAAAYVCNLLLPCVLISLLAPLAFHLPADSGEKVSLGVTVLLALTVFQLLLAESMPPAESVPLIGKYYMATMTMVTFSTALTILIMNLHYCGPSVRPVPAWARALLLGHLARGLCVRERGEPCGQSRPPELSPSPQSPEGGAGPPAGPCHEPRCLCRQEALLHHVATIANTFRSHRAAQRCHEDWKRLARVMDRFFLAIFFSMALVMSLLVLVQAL

Question: For `CC(C)[C@@H]1NC(=O)[C@H](CO)NC(=O)[C@@H]2CSSC[C@H](NC(=O)CN)C(=O)N[C@@H](CSSC[C@@H](C(N)=O)NC(=O)[C@H](CCCCN)NC(=O)[C@H](CC(N)=O)NC(=O)[C@@H]3CCCN3C(=O)[C@H](Cc3ncc[nH]3)NC(=O)[C@H](CC(=O)O)NC1=O)C(=O)N[C@@H](CO)C(=O)N[C@@H](Cc1ncc[nH]1)C(=O)N1CCC[C@H]1C(=O)N[C@@H](C)C(=O)N2` (HELM PEPTIDE1{G.C.C.S.[O=C([C@H](Cc1ncc[nH]1)N[*:1])[*:2]].P.A.C.S.V.D.[O=C([C@H](Cc1ncc[nH]1)N[*:1])[*:2]].P.N.K.C.[am]}$PEPTIDE1,PEPTIDE1,2:R3-8:R3|PEPTIDE1,PEPTIDE1,3:R3-16:R3$$$V2.0), which IC50 is on record?
Answer: Its IC50 is 22.2 µM.

— ChEMBL document CHEMBL4219259, “Molecular Determinants Conferring the Stoichiometric-Dependent Activity of α-Conotoxins at the Human α9α10 Nicotinic Acetylcholine Receptor Subtype” (J Med Chem, 2018)
